# Molecular target: T1, 11β-HSD1 (Homo sapiens, UniProt P28845)
# T1 construct: detecting cortisol generated from cortisterone by human liver microsomes; from tissue; host or cells: human liver microsomes
# Test: In vitro inhibition of 11β-HSD1, HTRF detection of cortisol generated from cortisone by human liver microsomes
# Format: biochemical
# Details: 11β-HSD IC50 (nM), 1 hour at 37° C., pH 6.0, NADPH 200 μM, cortisone 80 nM, inhibition relative to carbenoxolone signal
# Method in brief: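 Cortisol formed from cortisone by human liver microsomes quantified by competitive HTRF immunoassay (XL665-cortisol, Eu-cryptate anti-cortisol antibody), 2 h detection, Em665/Em615 ratio converted via cortisol calibration curve. Percent inhibition relative to carbenoxolone signal; IC50 from curves.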
# T1 sequence (P28845 whole entry): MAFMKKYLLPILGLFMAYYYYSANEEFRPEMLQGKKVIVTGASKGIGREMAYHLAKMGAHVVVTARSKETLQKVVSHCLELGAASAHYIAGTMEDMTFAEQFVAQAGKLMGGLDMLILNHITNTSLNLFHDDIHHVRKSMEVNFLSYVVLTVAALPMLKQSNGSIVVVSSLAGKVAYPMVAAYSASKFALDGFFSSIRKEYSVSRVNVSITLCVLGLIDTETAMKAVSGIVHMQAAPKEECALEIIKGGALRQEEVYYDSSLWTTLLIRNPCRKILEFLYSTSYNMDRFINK
row,Compound,IC50
1,"CC1(C)[C@H]2Cc3c(C(N)=O)cccc3[C@]1(C)CCN2C(=O)c1ccc2nc[nH]c2c1 [Example 160, (2R,6S)-3-(3H-Benzoimidazole-5-carbonyl)-6,11,11-trimethyl-1,2,3,4,5,6-hexahydro-2,6-methano-benzo[d]azocine-10-carboxylic acid amide]",2180 nM
2,"CN(C)C(=O)c1ccc2c(c1)CC1N(C(=O)c3ccc4nc[nH]c4c3)CCC2(C)C1(C)C (centres unmarked) [Example 161, 3-(3H-Benzoimidazole-5-carbonyl)-6,11,11-trimethyl-1,2,3,4,5,6-hexahydro-2,6-methano-benzo[d]azocine-9-carboxylic acid dimethylamide]",1750 nM
3,"CNC(=O)c1ccc2c(c1)CC1N(C(=O)c3ccc4nc[nH]c4c3)CCC2(C)C1(C)C (centres unmarked) [Example 162, 3-(3H-Benzoimidazole-5-carbonyl)-6,11,11-trimethyl-1,2,3,4,5,6-hexahydro-2,6-methano-benzo[d]azocine-9-carboxylic acid methylamide]",1090 nM
4,"CC12CCN(C(=O)c3ccc4nc[nH]c4c3)C(Cc3cc(C(N)=O)ccc31)C2(C)C (centres unmarked) [Example 163, 3-(3H-Benzoimidazole-5-carbonyl)-6,11,11-trimethyl-1,2,3,4,5,6-hexahydro-2,6-methano-benzo[d]azocine-9-carboxylic acid amide]",249 nM
5,"CCCN(C)C(=O)c1ccc(C(=O)N2CC[C@@]3(C)c4cccc(O)c4C[C@@H]2C3(C)C)cc1 [Example 167, 4-[(2R,6S)-10-Hydroxy-6,11,11-trimethyl-1,2,5,6-tetrahydro-4H-2,6-methano-benzo[d]azocine-3-carbonyl]-N-methyl-N-propyl-benzamide]",291 nM
6,"CCN(CC)C(=O)c1ccc(C(=O)N2CC[C@@]3(C)c4cccc(O)c4C[C@@H]2C3(C)C)cc1 [Example 168, N,N-Diethyl-4-[(2R,6S)-10-hydroxy-6,11,11-trimethyl-1,2,5,6-tetrahydro-4H-2,6-methano-benzo[d]azocine-3-carbonyl]-benzamide]",561 nM
7,"CC1(C)[C@H]2Cc3c(O)cccc3[C@]1(C)CCN2C(=O)c1ccc(C(=O)N2CCCCC2)cc1 [Example 169, [(2R,6S)-10-Hydroxy-6,11,11-trimethyl-1,2,5,6-tetrahydro-4H-2,6-methano-benzo[d]azocin-3-yl]-[4-(piperidine-1-carbonyl)-phenyl]-methanone]",950 nM
8,"CN(Cc1ccccc1)C(=O)c1ccc(C(=O)N2CC[C@@]3(C)c4cccc(O)c4C[C@@H]2C3(C)C)cc1 [Example 170, N-Benzyl-4-[(2R,6S)-10-hydroxy-6,11,11-trimethyl-1,2,5,6-tetrahydro-4H-2,6-methano-benzo[d]azocine-3-carbonyl]-N-methyl-benzamide]",626 nM
9,"CCCNC(=O)c1ccc(C(=O)N2CC[C@@]3(C)c4cccc(O)c4C[C@@H]2C3(C)C)cc1 [Example 171, 4-[(2R,6S)-10-Hydroxy-6,11,11-trimethyl-1,2,5,6-tetrahydro-4H-2,6-methano-benzo[d]azocine-3-carbonyl]-N-propyl-benzamide]",1650 nM
10,"C[C@@H]1[C@H]2Cc3ccc(CN)cc3[C@]1(C)CCN2C(=O)c1ccc2nc[nH]c2c1 [Example 172, [(2R,6R,11S)-8-Aminomethyl-6,11-dimethyl-1,2,5,6-tetrahydro-4H-2,6-methano-benzo[d]azocin-3-yl]-(3H-benzoimidazol-5-yl)-methanone]",1720 nM
11,"CC12CCN(C(=O)c3ccc4nc[nH]c4c3)C(Cc3cc(CN)ccc31)C2(C)C (centres unmarked) [Example 173, (9-Aminomethyl-6,11,11-trimethyl-1,2,5,6-tetrahydro-4H-2,6-methano-benzo[d]azocin-3-yl)-(3H-benzoimidazol-5-yl)-methanone]",1690 nM
12,"CC12CCN(C(=O)c3ccc4ncsc4c3)C(Cc3ccccc31)C2 (centres unmarked) [Example 174, Benzothiazol-6-yl-(6-methyl-1,2,5,6-tetrahydro-4H-2,6-methano-benzo[d]azocin-3-yl)-methanone]",406 nM
13,"CC12CCN(C(=O)c3ccc4[nH]cnc4c3)C(Cc3cc(/C(N)=N/O)ccc31)C2(C)C (centres unmarked) [Example 175, 3-(1H-Benzoimidazole-5-carbonyl)-N-hydroxy-6,11,11-trimethyl-1,2,3,4,5,6-hexahydro-2,6-methano-benzo[d]azocine-9-carboxamidine]",344 nM
14,"Cc1nc(-c2ccc3c(c2)CC2N(C(=O)c4ccc5[nH]cnc5c4)CCC3(C)C2(C)C)no1 (centres unmarked) [Example 176, (1H-Benzoimidazol-5-yl)-[6,11,11-trimethyl-9-(5-methyl-[1,2,4]oxadiazol-3-yl)-1,2,5,6-tetrahydro-4H-2,6-methano-benzo[d]azocin-3-yl]-methanone]",603 nM
15,"N#CC12CCN(C(=O)c3ccc4ncsc4c3)C(Cc3ccc(O)cc31)C2 (centres unmarked) [Example 177, 3-(Benzothiazole-6-carbonyl)-8-hydroxy-2,3,4,5-tetrahydro-1H-2,6-methano-benzo[d]azocine-6-carbonitrile]",8910 nM
16,"CC(=O)NCc1ccc2c(c1)CC1N(C(=O)c3ccc4nc[nH]c4c3)CCC2(C)C1(C)C (centres unmarked) [Example 178, N-[3-(3H-Benzoimidazole-5-carbonyl)-6,11,11-trimethyl-1,2,3,4,5,6-hexahydro-2,6-methano-benzo[d]azocin-9-ylmethyl]-acetamide]",159 nM
17,"CC(=O)Nc1ccc2c(c1)CC1N(C(=O)c3ccc4nc[nH]c4c3)CCC2(C)C1(C)C (centres unmarked) [Example 179, N-[3-(3H-Benzoimidazole-5-carbonyl)-6,11,11-trimethyl-1,2,3,4,5,6-hexahydro-2,6-methano-benzo[d]azocin-9-yl]-acetamide]",199 nM
18,"Cc1occc1C(=O)N1CC[C@@]2(C)c3cccc(O)c3C[C@@H]1C2(C)C [Example 180, [(2R,6S)-10-Hydroxy-6,11,11-trimethyl-1,2,5,6-tetrahydro-4H-2,6-methano-benzo[d]azocin-3-yl]-(2-methyl-furan-3-yl)-methanone]",1320 nM
19,"CC12CCN(C(=O)c3ccc4nc[nH]c4c3)C(Cc3cc(NS(C)(=O)=O)ccc31)C2(C)C (centres unmarked) [Example 181, N-[3-(3H-Benzoimidazole-5-carbonyl)-6,11,11-trimethyl-1,2,3,4,5,6-hexahydro-2,6-methano-benzo[d]azocin-9-yl]-methanesulfonamide]",147 nM
20,"CC1(C)C2CCN(C(=O)c3ccc4nc[nH]c4c3)C1Cc1c(O)cccc12 (centres unmarked) [Example 183, (3H-Benzoimidazol-5-yl)-(10-hydroxy-11,11-dimethyl-1,2,5,6-tetrahydro-4H-2,6-methano-benzo[d]azocin-3-yl)-methanone]",155 nM
21,"CC1CN(Cc2ccc(C(=O)N3CC[C@@]4(C)c5cccc(O)c5C[C@@H]3C4(C)C)cc2)CC(C)O1 (stereo partly drawn) [Example 184, [4-(2,6-Dimethyl-morpholin-4-ylmethyl)-phenyl]-[(2R,6S)-10-hydroxy-6,11,11-trimethyl-1,2,5,6-tetrahydro-4H-2,6-methano-benzo[d]azocin-3-yl]-methanone]",1150 nM
22,"CC1(O)CCN(Cc2ccc(C(=O)N3CC[C@@]4(C)c5cccc(O)c5C[C@@H]3C4(C)C)cc2)CC1 [Example 185, [4-(4-Hydroxy-4-methyl-piperidin-1-ylmethyl)-phenyl]-[(2R,6S)-10-hydroxy-6,11,11-trimethyl-1,2,5,6-tetrahydro-4H-2,6 methano-benzo[d]azocin-3-yl]-methanone]",5370 nM
23,"CC1(C)[C@H]2Cc3c(O)cccc3[C@]1(C)CCN2C(=O)c1ccc(CN2CC(O)C2)cc1 [Example 187, [4-(3-Hydroxy-azetidin-1-ylmethyl)-phenyl]-[(2R,6S)-10-hydroxy-6,11,11-trimethyl-1,2,5,6-tetrahydro-4H-2,6-methano-benzo[d]azocin-3-yl]-methanone]",1960 nM
24,"CC1(C)[C@H]2Cc3c(O)cccc3[C@]1(C)CCN2C(=O)c1ccc(CN2CCC(O)C2)cc1 (stereo partly drawn) [Example 188, [4-(3-Hydroxy-pyrrolidin-1-ylmethyl)-phenyl]-[(2R,6S)-10-hydroxy-6,11,11-trimethyl-1,2,5,6-tetrahydro-4H-2,6-methano-benzo[d]azocin-3-yl]-methanone]",2920 nM
25,"COC1CCN(Cc2ccc(C(=O)N3CC[C@@]4(C)c5cccc(O)c5C[C@@H]3C4(C)C)cc2)CC1 [Example 189, [(2R,6S)-10-Hydroxy-6,11,11-trimethyl-1,2,5,6-tetrahydro-4H-2,6-methano-benzo[d]azocin-3-yl]-[4-(4-methoxy-piperidin-1-ylmethyl)-phenyl]-methanone]",2270 nM
26,"CC1(C)[C@H]2Cc3c(O)cccc3[C@]1(C)CCN2C(=O)c1ccc(CN2CCC(O)CC2)cc1 [Example 190, [4-(4-Hydroxy-piperidin-1-ylmethyl)-phenyl]-[(2R,6S)-10-hydroxy-6,11,11-trimethyl-1,2,5,6-tetrahydro-4H-2,6-methano-benzo[d]azocin-3-yl]-methanone]",1650 nM
27,"CC1(C)[C@H]2Cc3c(ccc4[nH]cnc34)[C@]1(C)CCN2C(=O)c1ccc2nc[nH]c2c1 [Example 191, (3H-Benzoimidazol-5-yl)-[(5R,9S)-4,5,6,7,8,9-hexahydro-2,10,12,12-trimethyl-5,9-methano-1H-imidazo[5,4-j][3]benzazocin-6-yl]-methanone]",571 nM
28,"CC1(C)[C@H]2Cc3c(O)cccc3[C@]1(C)CCN2C(=O)c1n[nH]c2ccccc12 [Example 192, [(2R,6S)-10-Hydroxy-6,11,11-trimethyl-1,2,5,6-tetrahydro-4H-2,6-methano-benzo[d]azocin-3-yl]-(1H-indazol-3-yl)-methanone]",434 nM
29,"CC1(C)[C@H]2Cc3c(O)cccc3[C@]1(C)CCN2C(=O)c1c[nH]c2ccc(F)cc12 [Example 193, (5-Fluoro-1H-indol-3-yl)-[(2R,6S)-10-hydroxy-6,11,11-trimethyl-1,2,5,6-tetrahydro-4H-2,6-methano-benzo[d]azocin-3-yl]-methanone]",360 nM
